For assay [1], the target named is T1, recombinant human KAT-II (kynurenine aminotransferase II) (Homo sapiens, UniProt Q8N5Z0).
T1 construct: gene AADAT; recombinant, purchased from R&D Systems (Bio-Techne)
As to the kind of experiment: Lineweaver-Burk analysis, same fluorescent assay. Type of assay: biochemical. As to the method:
Lineweaver-Burk analysis, same fluorescent assay on recombinant human KAT-II (kynurenine aminotransferase II) | competitive inhibition constant (Ki) for herbacetin and (-)-Epicatechin was calculated

In assay [2] the target is T1, recombinant human KAT-II (kynurenine aminotransferase II). As to the kind of experiment: microplate fluorescent kynurenine aminotransferase assay coupled to glutamate dehydrogenase. Type of assay: biochemical.

Read-outs that look alike come from different tables or passages of the source.

T1 sequence (Q8N5Z0 30-425): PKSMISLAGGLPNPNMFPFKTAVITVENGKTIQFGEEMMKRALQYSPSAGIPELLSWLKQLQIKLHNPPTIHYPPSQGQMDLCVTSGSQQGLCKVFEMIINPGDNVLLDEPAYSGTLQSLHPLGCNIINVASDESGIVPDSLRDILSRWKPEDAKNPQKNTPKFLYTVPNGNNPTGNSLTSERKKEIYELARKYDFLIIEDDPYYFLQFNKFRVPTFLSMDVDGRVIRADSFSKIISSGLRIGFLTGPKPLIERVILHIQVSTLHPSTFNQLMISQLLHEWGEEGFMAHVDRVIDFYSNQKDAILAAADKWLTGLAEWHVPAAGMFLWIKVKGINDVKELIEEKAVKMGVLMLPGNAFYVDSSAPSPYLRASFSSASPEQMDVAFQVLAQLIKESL

Broadly, the Ki is the equilibrium dissociation constant of an inhibitor or competing ligand from its target. One may read the IC50 as the concentration at which inhibition is half-maximal. In the case of `Oc1cc(O)c2c(c1)O[C@H](c1ccc(O)c(O)c1)[C@H](O)C2` [(-)-Epicatechin], the Ki in assay [1] came to 9.23 ± 0.39 µM. For the same compound, the IC50 in assay [2] came to 8.76 ± 0.76 µM. Take `N[C@H]1Cc2ccccc2N(O)C1=O` [PF-04859989, reference compound]: the half-maximal inhibitory concentration (IC50) in assay [2] (1 mM L-KYN, 50 µM α-ketoglutaric acid, 5 µM PLP, pH 7.5, 30 min pre-incubation at room temperature, irreversible (binds PLP), covalent, non-competitive, error printed as 1.83) worked out at 0.0279 ± 0.00181 µM.

Turning to `O=c1c(O)c(-c2ccc(O)cc2)oc2c(O)c(O)cc(O)c12` [herbacetin], the Ki in assay [1] worked out at 7.64 ± 0.46 µM. In assay [2], the IC50 is 5.98 ± 0.18 µM.

These data come from paper PMC11768104, “Identification of Two Flavonoids as New and Safe Inhibitors of Kynurenine Aminotransferase II via Computational and In Vitro Study” (Pharmaceuticals, 2025).
